From ChEMBL document CHEMBL1201862, “PubChem BioAssay data set” (2004)
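Where inhibition never reached the appropriate level, the endpoint shown equals the highest concentration tested. Otherwise, values were interpolated linearly from a five-concentration, 48-hour dose response in 96-well plates. At the GI50, growth is halved.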 Active and inactive are the calls of the source. Cut-off read from the data, not from the text of the source: active = GI50 up to about 1.1 µM and inactive = higher.

How the values were obtained:
Assay in all cases: NCI tumour cell line growth inhibition, 48 h
SK-MEL-5 = test system: SK-MEL-5
NCI-H23 = test system: NCI-H23
SNB-75 = test system: SNB-75
NCI-H522 = test system: NCI-H522
DLD-1 = test system: DLD-1
NCI-H460 = test system: NCI-H460
SR = test system: SR
A498 = test system: A498
786-0 = test system: 786-0
HOP-18 = test system: HOP-18
OVCAR-3 = test system: OVCAR-3
UO-31 = test system: UO-31
U-251 = test system: U-251
OVCAR-8 = test system: OVCAR-8
SN12C = test system: SN12C
RXF 393 = test system: RXF 393
CCRF-CEM = test system: CCRF-CEM
SNB-19 = test system: SNB-19
TK-10 = test system: TK-10
M19-MEL = test system: M19-MEL
MOLT-4 = test system: MOLT-4
HT-29 = test system: HT-29
LXFL 529 = test system: LXFL 529
OVCAR-4 = test system: OVCAR-4
K562 = test system: K562
KM12 = test system: KM12
Malme-3M = test system: Malme-3M
LOX IMVI = test system: LOX IMVI
OVCAR-5 = test system: OVCAR-5
ACHN = test system: ACHN
SK-MEL-2 = test system: SK-MEL-2
SF-295 = test system: SF-295
M14 = test system: M14
HOP-62 = test system: HOP-62
SK-MEL-28 = test system: SK-MEL-28
SF-268 = test system: SF-268
HCT-15 = test system: HCT-15
SF-539 = test system: SF-539
UACC-62 = test system: UACC-62
DMS-273 = test system: DMS-273
UACC-257 = test system: UACC-257
IGROV-1 = test system: IGROV-1
SNB-78 = test system: SNB-78
A549 = test system: A549
RPMI-8226 = test system: RPMI-8226
HCT-116 = test system: HCT-116
EKVX = test system: EKVX
SK-OV-3 = test system: SK-OV-3
HL-60 = test system: HL-60
COLO 205 = test system: COLO 205
SW-620 = test system: SW-620
DMS-114 = test system: DMS-114
CAKI-1 = test system: CAKI-1
NCI-H226 = test system: NCI-H226
HCC 2998 = test system: HCC 2998
KM-20L2 = test system: KM-20L2

With `CN(C)CCC(/C=C/c1ccccc1)=N\Nc1c(F)c(F)c(F)c(F)c1F` as the compound, how does the GI50 (SK-MEL-5) read?
Its GI50 is 15.5 µM (inactive).

And the GI50 (NCI-H23)?
The GI50 was > 100 µM (inactive).

What about the GI50 (SNB-75) of the same compound?
Its GI50 is 9.82 µM (inactive).

And the GI50 (NCI-H522)?
Its GI50 is 64.1 µM (inactive).

And the GI50 (DLD-1)?
Its GI50 is > 100 µM (inactive).

What about the GI50 (NCI-H460) of the same compound?
Its GI50 is 27.7 µM (inactive).

And the GI50 (SR)?
Its GI50 is 28.4 µM (inactive).

And the GI50 (A498)?
Its GI50 is 62.2 µM (inactive).

What about the GI50 (786-0) of the same compound?
Its GI50 is > 100 µM (inactive).

And the GI50 (HOP-18)?
Its GI50 is 44.1 µM (inactive).

And the GI50 (OVCAR-3)?
The GI50 was > 100 µM (inactive).

What about the GI50 (UO-31) of the same compound?
Its GI50 is 76.4 µM (inactive).

And the GI50 (U-251)?
The GI50 was > 100 µM (inactive).

What about the GI50 (OVCAR-8) of the same compound?
Its GI50 is 53.8 µM (inactive).

And the GI50 (SN12C)?
Its GI50 is 64.6 µM (inactive).

What about the GI50 (RXF 393) of the same compound?
Its GI50 is 11.3 µM (inactive).

What about the GI50 (CCRF-CEM) of the same compound?
Its GI50 is 55.6 µM (inactive).

And the GI50 (SNB-19)?
Its GI50 is > 100 µM (inactive).

And the GI50 (TK-10)?
The GI50 was > 100 µM (inactive).

And the GI50 (M19-MEL)?
The GI50 was 39.4 µM (inactive).

What about the GI50 (MOLT-4) of the same compound?
Its GI50 is 45.1 µM (inactive).

What about the GI50 (HT-29) of the same compound?
Its GI50 is 27 µM (inactive).

What about the GI50 (LXFL 529) of the same compound?
Its GI50 is 77.8 µM (inactive).

And the GI50 (OVCAR-4)?
The GI50 was > 100 µM (inactive).

And the GI50 (K562)?
The GI50 was 39.4 µM (inactive).

And the GI50 (KM12)?
Its GI50 is > 100 µM (inactive).

And the GI50 (Malme-3M)?
Its GI50 is 38 µM (inactive).

What about the GI50 (LOX IMVI) of the same compound?
Its GI50 is > 100 µM (inactive).

And the GI50 (OVCAR-5)?
Its GI50 is > 100 µM (inactive).

What about the GI50 (ACHN) of the same compound?
The GI50 was 49.1 µM (inactive).

And the GI50 (SK-MEL-2)?
The GI50 was 41.6 µM (inactive).

What about the GI50 (SF-295) of the same compound?
The GI50 was 28.6 µM (inactive).

And the GI50 (M14)?
The GI50 was 44.1 µM (inactive).

And the GI50 (HOP-62)?
The GI50 was > 100 µM (inactive).

And the GI50 (SK-MEL-28)?
The GI50 was > 100 µM (inactive).

And the GI50 (SF-268)?
The GI50 was > 100 µM (inactive).

What about the GI50 (HCT-15) of the same compound?
The GI50 was 56.8 µM.

And the GI50 (SF-539)?
The GI50 was > 100 µM (inactive).

What about the GI50 (UACC-62) of the same compound?
Its GI50 is 49.2 µM (inactive).

And the GI50 (DMS-273)?
The GI50 was 36.8 µM (inactive).

And the GI50 (UACC-257)?
The GI50 was 26.4 µM (inactive).

And the GI50 (IGROV-1)?
Its GI50 is > 100 µM (inactive).

And the GI50 (SNB-78)?
Its GI50 is 50.9 µM (inactive).

And the GI50 (A549)?
The GI50 was 72.6 µM (inactive).

What about the GI50 (RPMI-8226) of the same compound?
Its GI50 is 24.8 µM (inactive).

And the GI50 (HCT-116)?
Its GI50 is > 100 µM (inactive).

And the GI50 (EKVX)?
Its GI50 is > 100 µM (inactive).

What about the GI50 (SK-OV-3) of the same compound?
Its GI50 is > 100 µM (inactive).

And the GI50 (HL-60)?
The GI50 was 16 µM (inactive).

What about the GI50 (COLO 205) of the same compound?
The GI50 was > 100 µM (inactive).

What about the GI50 (SW-620) of the same compound?
Its GI50 is > 100 µM (inactive).

What about the GI50 (DMS-114) of the same compound?
Its GI50 is 21.7 µM (inactive).

Which results are given for `CC(C)=CC(=O)C/C(=N\NC(N)=S)C(=O)Nc1ccc(Cl)cc1`?
GI50 (SK-MEL-5): > 100 µM (inactive); GI50 (NCI-H23): > 100 µM (inactive); GI50 (SNB-75): 79.8 µM (inactive); GI50 (DLD-1): > 100 µM (inactive); GI50 (NCI-H460): > 100 µM (inactive); GI50 (A498): > 100 µM (inactive); GI50 (786-0): > 100 µM (inactive); GI50 (HOP-18): > 100 µM (inactive); GI50 (OVCAR-3): > 100 µM (inactive); GI50 (UO-31): > 100 µM (inactive); GI50 (U-251): > 100 µM (inactive); GI50 (OVCAR-8): > 100 µM (inactive); GI50 (SN12C): > 100 µM (inactive); GI50 (RXF 393): > 100 µM (inactive); GI50 (CCRF-CEM): > 100 µM (inactive); GI50 (SNB-19): > 100 µM (inactive); GI50 (TK-10): > 100 µM (inactive); GI50 (M19-MEL): > 100 µM (inactive); GI50 (MOLT-4): > 100 µM (inactive); GI50 (HT-29): > 100 µM (inactive); GI50 (LXFL 529): > 100 µM (inactive); GI50 (CAKI-1): > 100 µM (inactive); GI50 (OVCAR-4): > 100 µM (inactive); GI50 (K562): > 100 µM (inactive); GI50 (KM12): > 100 µM (inactive); GI50 (Malme-3M): > 100 µM (inactive); GI50 (LOX IMVI): > 100 µM (inactive); GI50 (OVCAR-5): > 100 µM (inactive); GI50 (ACHN): > 100 µM (inactive); GI50 (SK-MEL-2): > 100 µM (inactive); GI50 (SF-295): > 100 µM (inactive); GI50 (NCI-H226): > 100 µM (inactive); GI50 (M14): > 100 µM (inactive); GI50 (HCC 2998): > 100 µM (inactive); GI50 (SK-MEL-28): > 100 µM (inactive); GI50 (SF-268): > 100 µM (inactive); GI50 (KM-20L2): > 100 µM (inactive); GI50 (HCT-15): > 100 µM; GI50 (SF-539): > 100 µM (inactive); GI50 (UACC-62): > 100 µM (inactive); GI50 (DMS-273): > 100 µM (inactive); GI50 (UACC-257): > 100 µM (inactive); GI50 (IGROV-1): > 100 µM (inactive); GI50 (SNB-78): > 100 µM (inactive); GI50 (A549): > 100 µM (inactive); GI50 (RPMI-8226): > 100 µM (inactive); GI50 (HCT-116): > 100 µM (inactive); GI50 (EKVX): > 100 µM (inactive); GI50 (SK-OV-3): > 100 µM (inactive); GI50 (HL-60): > 100 µM (inactive); GI50 (COLO 205): > 100 µM (inactive); GI50 (SW-620): > 100 µM (inactive); GI50 (DMS-114): > 100 µM (inactive)
